Consider 18 compounds from ChEMBL document CHEMBL5230085, “Design, synthesis, and biological characterization of a new class of symmetrical polyamine-based small molecule CXCR4 antagonists” (Eur J Med Chem, 2020).

The target in test [1] is T1, C-X-C chemokine receptor type 4 (Homo sapiens, UniProt P61073). As to the kind of experiment: Binding affinity to CXCR4 (unknown origin) expressed in CHO cells incubated for 40 mins by competitive binding assay method. The class given is cell-based.
Test [2] concerns C-X-C chemokine receptor type 4 (Homo sapiens), P61073 [W195A]. As to the kind of experiment: Binding affinity to CXCR4 W195A mutant (unknown origin) assessed as reduction in potency. Further details: scale not given: the % may be the effect or the level left. The note with it: filed as antagonist.
C-X-C chemokine receptor type 4 (Homo sapiens), P61073 [W195A], sequence (P61073 whole entry W195A): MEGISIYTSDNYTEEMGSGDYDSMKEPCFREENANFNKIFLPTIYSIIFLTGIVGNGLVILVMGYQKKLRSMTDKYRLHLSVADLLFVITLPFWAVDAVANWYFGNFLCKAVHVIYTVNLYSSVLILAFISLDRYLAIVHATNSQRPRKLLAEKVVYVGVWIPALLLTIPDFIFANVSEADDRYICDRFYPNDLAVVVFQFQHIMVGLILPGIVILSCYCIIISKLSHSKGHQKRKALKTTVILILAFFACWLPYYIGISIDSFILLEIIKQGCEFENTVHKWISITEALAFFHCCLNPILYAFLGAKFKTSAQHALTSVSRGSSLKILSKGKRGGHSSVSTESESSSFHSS
Test [3] relates to C-X-C chemokine receptor type 4 (Homo sapiens), P61073 [D193A]. As to the kind of experiment: Binding affinity to CXCR4 D193A mutant (unknown origin) assessed as reduction in potency. Details: scale not given: the % may be the effect or the level left. The note with it: filed as antagonist.
C-X-C chemokine receptor type 4 (Homo sapiens), P61073 [D193A], sequence (P61073 whole entry D193A): as the sequence (P61073 whole entry W195A) above, with D193A, A195W counted along it
The test system of test [4] is C-X-C chemokine receptor type 4 (Homo sapiens), P61073 [E288D]. As to the kind of experiment: Binding affinity to CXCR4 E288D mutant (unknown origin) by competitive binding assay method. The note with it: filed as antagonist.
C-X-C chemokine receptor type 4 (Homo sapiens), P61073 [E288D], sequence (P61073 whole entry E288D): as the sequence (P61073 whole entry W195A) above, with A195W, E288D counted along it
Test [5] has as its system C-X-C chemokine receptor type 4 (Homo sapiens), P61073 [R30A]. As to the kind of experiment: Binding affinity to N-terminus CXCR4 R30A mutant (unknown origin).
Test [6] concerns C-X-C chemokine receptor type 4 (Homo sapiens), P61073 [E288D]. As to the kind of experiment: Binding affinity to CXCR4 E288D mutant (unknown origin) by 12G5 competitive binding assay.
Test [7] can be described thus: Antiviral activity against HIV1 NL4-3 infected in human CEM-GFP cells assessed as inhibition in viral growth measured after 5 days by 96-well plate assay method. The class given is functional, cell-based. Particulars: NL4-3, CEM-GFP, 120 h.
Test [8] has as its system C-X-C chemokine receptor type 4 (Homo sapiens), P61073 [H113A]. As to the kind of experiment: Binding affinity to N-terminus CXCR4 H113A mutant (unknown origin).
The target of test [9] is T1, C-X-C chemokine receptor type 4. As to the kind of experiment: Binding affinity to CXCR4 (unknown origin). The note with it: filed as antagonist.
In test [10] the test system is C-X-C chemokine receptor type 4 (Homo sapiens), P61073 [D262A]. As to the kind of experiment: Binding affinity to N-terminus CXCR4 D262A mutant (unknown origin).
C-X-C chemokine receptor type 4 (Homo sapiens), P61073 [D262A], sequence (P61073 whole entry D262A): as the sequence (P61073 whole entry W195A) above, with A195W, D262A counted along it
In test [11] the test system is CEM-GFP. As to the kind of experiment: Cytotoxicity against human CEM-GFP cells assessed as cell viability at 10 uM incubated for 5 days by Celltiter-blue assay method. Format: functional, cell-based. The note with it: time 5.0 day.
In test [12] the target is T1, C-X-C chemokine receptor type 4. As to the kind of experiment: Antagonist activity at CXCR4 receptor in SDF-1alpha-stimulated human SUP-T1 cells incubated for 30 mins by calcium mobilization assay. Format: cell-based.

Each structure is given as a SMILES string. Calls of active or inactive are those of the source. The rule behind the calls is not given here. Bounds are passed on as bounds.

T1 sequence (P61073 whole entry): as the sequence (P61073 whole entry W195A) above, with A195W counted along it
C-X-C chemokine receptor type 4 (Homo sapiens), P61073 [R30A], sequence (P61073 whole entry R30A): as the sequence (P61073 whole entry W195A) above, with R30A, A195W counted along it
C-X-C chemokine receptor type 4 (Homo sapiens), P61073 [H113A], sequence (P61073 whole entry H113A): as the sequence (P61073 whole entry W195A) above, with H113A, A195W counted along it

Consider `c1ccc2c(CNCCCNC3CCCCC3)ccc(CNCCCNC3CCCCC3)c2c1`, for which the IC50 in test [1] was found to be 40.8 nM.

`Nc1cc(CNCCCNC2CCCCC2)cc(CNCCCNC2CCCCC2)c1` came in with a half-inhibitory concentration (IC50) in test [1] of 81.2 nM.

In turn, `O=[N+]([O-])c1cc(CNCCCNC2CCCCC2)ccc1CNCCCNC1CCCCC1` registered an IC50 in test [1] of 354 nM.

`O=C(NCCCNC1CCCCC1)c1ccc(CNCCCNC2CCCCC2)cc1`: in test [1], the IC50 is 699 nM.

As for `c1cc(CNCCCNC2CCCCC2)nc(CNCCCNC2CCCCC2)c1`, the IC50 in [1] is 122 nM.

Turning to `c1cc(CNCCCNC2CCCCC2)ncc1CNCCCNC1CCCCC1`, the concentration for half-maximal inhibition (IC50) in test [1] amounted to 194 nM.

Consider `O=[N+]([O-])c1cc(CNCCCNC2CCCCC2)cc(CNCCCNC2CCCCC2)c1`, for which the IC50 in test [1] is 147 nM.

`c1ccc(CNCc2ccc(CNCc3ccccn3)cc2)nc1` returned an IC50 in test [1] of more than 10000 nM.

On to `c1cc(-c2ccc(CNCCCNC3CCCCC3)cc2)ccc1CNCCCNC1CCCCC1`, for which the 50% inhibitory concentration (IC50) in test [1] worked out at 67.5 nM.

`c1c(CNCCCNC2CCCCC2)cc(CNCCCNC2CCCCC2)cc1CNCCCNC1CCCCC1` returned an IC50 in test [1] of 312 nM.

In test [1], `CNc1cc(CNCCCNC2CCCCC2)cc(CNCCCNC2CCCCC2)c1` yielded an IC50 of 67.6 nM.

Turning to `c1cc(CNCCCNC2CCCCC2)ccc1CNCCCNC1CCCCC1`, the Activity is 10% in [2]; 10% in test [3]; 40% in test [4]; 30% in test [6]; 60% in test [9]; “Not toxic” in test [11]. The result in test [5], in test [8] and in [10] was inactive. The IC50 in test [7] amounted to 1500 nM; in test [12], 119 nM; in [1], 19.8 nM.

On to `Nc1cc(CNCCCNC2CCCCC2)ccc1CNCCCNC1CCCCC1`, for which, in test [1], the half-maximal inhibitory concentration (IC50) was 68.9 nM.

In turn, `O=C(NCCCNC1CCCCC1)c1ccc(C(=O)NCCCNC2CCCCC2)cc1` yielded an IC50 in test [1] of 1700 nM.

In the case of `CN(C)c1cc(CNCCCNC2CCCCC2)ccc1CNCCCNC1CCCCC1`, the IC50 in [1] worked out at 48 nM.

For `c1cc(CNC2CCCCC2)ccc1CNC1CCCCC1`, in test [1], the IC50 is more than 10000 nM.

`c1cc(CNCCCNC2CCCCC2)cc(CNCCCNC2CCCCC2)c1`: the IC50 in test [1] was determined as 155 nM.

The compound `CN(C)c1cc(CNCCCNC2CCCCC2)cc(CNCCCNC2CCCCC2)c1` came in with an IC50 in test [1] of 119 nM.
